Source: patent US10653688B2, “6-(6-membered heteroaryl and aryl)isoquinolin-3-yl carboxamides and preparation and use thereof” (Samumed, LLC, priority 2017, dated 2020)
Read-outs that look alike come from different tables or passages of the source.

Legend:
[1] = tested on: Tau phosphorylation at Ser396 (pSer396) in SH-SY5Y cells; test: Tau phosphorylation at Ser396 (pSer396) cell assay, ELISA/western blot; format: cell-based, human; conditions: Homo sapiens
Experimental: SH-SY5Y cells (human neuroblastoma) were cultured in DMEM/F-12 medium supplemented with 15% FBS, Non-essential Amino Acid and Penicillin/Streptomycin. Two days before treatment, cells were seeded onto 96 well plates at 5×10^4 cells/well.
The above synthesized compounds were screened using the cell assay procedure to assess decrease Tau phosphorylation at Ser396 (pSer396) described below.
DMSO-resuspended compounds were dispensed to 8 wells as a serial titration from 10 μM to 4.6 nM final in medium and cells were exposed overnight (16-18 h) in a humidified incubator at 36.6c before harvest.
Cells were lysed with RIPA buffer complemented with phosphatase and protease inhibitors then lysates were spun down at 12,000 g for 10 min to remove any cellular debris. Lysates are then either directly tested for pSer396 by ELISA (Life Technology, Kit KHB7031) or loaded on NuPage Bis-Tris gels for western blot analysis. Colorimetric detection of ELISA signal is performed by Cytation3 plate reader (Biotek) and the chemiluminescence signal for HRP-linked antibodies used in western blotting is detected using a Carestream Image Station. The same pSer396 antibody is used for detection of pTau in both assays.
Blot densitometry for pSer396 and β-actin were analyzed using ImageJ (NIH) and pSer396 Tau ELISA signal was used to plot, draw the curve fitting, and determine each compounds EC50 in Prism (GraphPad).

[2] = molecular target: recombinant GSK3β kinase (Homo sapiens (Human), UniProt P49841); test: GSK3β kinase assay (Ser/Thr 09 peptide Z-lyte, FRET); format: biochemical;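 also: FRET read-out as coumarin over fluorescein emission ratio, compounds incubated one hour at room temperature, IC50 from dose-response curve fit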
[3] = molecular target: recombinant DYRK1A kinase (Homo sapiens (Human), UniProt Q13627); test: DYRK1A kinase assay (Ser/Thr 18 peptide Z-lyte, FRET)
Experimental: Each compound was dissolved in DMSO as a 10 mM stock and used to prepare compound source plates.
This is a non-radioactive assay using fluorescence resonance energy transfer (FRET) between coumarin and fluorescein to detect kinase activity which is represented as a ratio of coumarin emission/fluorescein emission.
The mixture was allowed to incubate with the representative compounds for one hour at room temperature. All reactions were performed in duplicate. Unphosphorylated (“0% Control”) and phosphorylated (“100% control”) forms of Ser/Thr 18 served as control reactions. Additionally, an 11-point dose-response curve of Staurosporine (luM top) was run to serve as a positive compound control.
After incubation, Development Reagent A was diluted in Development Buffer then added to the reaction and allowed to further incubate for one hour at room temperature.
Dose-response curves were generated and inhibitory concentration (IC50) values were calculated using non-linear regression curve fit in the Dotmatics' Studies Software (Bishops Stortford, UK).

[4] = SH-SY5Y cells, overnight (16-18 h), read-out: pSer396 Tau EC50
[5] = GSK3β kinase, head says EC50, method says IC50, ATP 46 μM
[6] = DYRK1A kinase, head says EC50, method says IC50, ATP 30 μM

Sequence of recombinant GSK3β kinase (P49841 whole entry): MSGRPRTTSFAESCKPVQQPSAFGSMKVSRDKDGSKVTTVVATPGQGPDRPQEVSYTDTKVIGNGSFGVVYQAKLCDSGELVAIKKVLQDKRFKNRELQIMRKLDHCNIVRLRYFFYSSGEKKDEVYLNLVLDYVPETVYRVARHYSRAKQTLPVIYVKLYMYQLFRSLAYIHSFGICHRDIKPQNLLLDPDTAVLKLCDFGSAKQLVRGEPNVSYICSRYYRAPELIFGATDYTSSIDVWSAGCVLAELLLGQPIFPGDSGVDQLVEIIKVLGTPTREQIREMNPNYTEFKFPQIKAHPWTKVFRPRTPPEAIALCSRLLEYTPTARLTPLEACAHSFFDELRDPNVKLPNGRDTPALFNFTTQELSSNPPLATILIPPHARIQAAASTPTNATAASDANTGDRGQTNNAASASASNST

| EC50 [1, 4] | EC50 [2, 5] | EC50 [3, 6] | EC50 [2] | EC50 [3] | Structure (SMILES) | EC50 ([1]; SH-SY5Y, read-out: pSer396 Tau EC50 (μM)) |
| --- | --- | --- | --- | --- | --- | --- |
| 2.2 µM | 247 nM | 7 nM |  |  | O=C(CN1CCCC1)Nc1cc2cc(-c3cccnc3)ccc2cn1 [Compound 7, N-(6-(Pyridin-3-yl)isoquinolin-3-yl)-2-(pyrrolidin-1-yl)acetamide] |  |
| 2.9 µM | 525 nM | 8 nM |  |  | O=C(CN1CCOCC1)Nc1cc2cc(-c3cccnc3)ccc2cn1 [Compound 10, 2-Morpholino-N-(6-(pyridin-3-yl)isoquinolin-3-yl)acetamide] |  |
| 5.8 µM | 1120 nM | 20 nM |  |  | CN1CCN(CC(=O)Nc2cc3cc(-c4cccnc4)ccc3cn2)CC1 [Compound 11, 2-(4-Methylpiperazin-1-yl)-N-(6-(pyridin-3-yl)isoquinolin-3-yl)acetamide] |  |
| 2.3 µM | 722 nM | 17 nM |  |  | CN1CCCN(CC(=O)Nc2cc3cc(-c4cccnc4)ccc3cn2)CC1 [Compound 12, 2-(4-Methyl-1,4-diazepan-1-yl)-N-(6-(pyridin-3-yl)isoquinolin-3-yl) acetamide] |  |
| 4.6 µM | 974 nM | 3 nM |  |  | CN1CCN(C[C@H]2CC[C@H](C(=O)Nc3cc4cc(-c5cncc(F)c5)ccc4cn3)CC2)CC1 [Compound 17, trans-N-(6-(5-Fluoropyridin-3-yl)isoquinolin-3-yl)-4-((4-methylpiperazin-1-yl)methyl)cyclohexane-1-carboxamide] |  |
| > 10 µM | 3200 nM | 42 nM |  |  | CN1CCN(CC(=O)Nc2cc3cc(-c4ccc(F)nc4)ccc3cn2)CC1 [Compound 21, N-(6-(6-Fluoropyridin-3-yl)isoquinolin-3-yl)-2-(4-methylpiperazin-1-yl) acetamide] |  |
| > 10 µM | 725 nM | 25 nM |  |  | CN1CCC(C(=O)Nc2cc3cc(-c4cncc(N5CCCC5)c4)ccc3cn2)CC1 [Compound 50, 1-Methyl-N-(6-(5-(pyrrolidin-1-yl)pyridin-3-yl)isoquinolin-3-yl)piperidine-4-carboxamide] |  |
| 9.8 µM |  |  | 1030 nM | 11 nM | [2H]c1nc([2H])c(-c2ccc3cnc(NC(=O)CN4CCN(C)CC4)cc3c2)c([2H])c1[2H] [Compound 61, 2-(4-Methylpiperazin-1-yl)-N-(6-(pyridin-3-yl-d4)isoquinolin-3-yl)acetamide] |  |
| 4.8 µM |  |  | 455 nM | 9 nM | [2H]c1nc([2H])c(-c2ccc3cnc(NC(=O)CN4CCOCC4)cc3c2)c([2H])c1[2H] [Compound 62, 2-Morpholino-N-(6-(pyridin-3-yl-d4)isoquinolin-3-yl)acetamide] |  |
| 1.1 µM |  |  | 68 nM | 29 nM | O=C(CN1CCOCC1)Nc1cc2cc(-c3ccnnc3)ccc2cn1 [Compound 67, 2-morpholino-N-(6-(pyridazin-4-yl)isoquinolin-3-yl)acetamide] |  |
| 2.9 µM |  |  | 283 nM | 20 nM | O=C(Nc1cc2cc(-c3cnccn3)ccc2cn1)[C@H]1C[C@H](N2CCOCC2)C1 [Compound 69, trans-3-Morpholino-N-(6-(pyrazin-2-yl)isoquinolin-3-yl)cyclobutane-1-carboxamide] |  |
| 3.3 µM |  |  | 1020 nM | 11 nM | O=C(Nc1cc2cc(-c3cnccn3)ccc2cn1)[C@H]1CC[C@H](N2CCOCC2)CC1 [Compound 71, trans-4-Morpholino-N-(6-(pyrazin-2-yl)isoquinolin-3-yl)cyclohexane-1-carboxamide] |  |
| 7.7 µM |  |  | 1220 nM | 7 nM | O=C(Nc1cc2cc(-c3cnccn3)ccc2cn1)[C@H]1CC[C@H](CN2CC(F)C2)CC1 [Compound 72, trans-4-((3-Fluoroazetidin-1-yl)methyl)-N-(6-(pyrazin-2-yl)isoquinolin-3-yl)cyclohexane-1-carboxamide] |  |
| > 10 µM |  |  | 828 nM | 4 nM | CN1CCN(C[C@H]2CC[C@H](C(=O)Nc3cc4cc(-c5cnccn5)ccc4cn3)CC2)CC1 [Compound 73, trans-4-((4-Methylpiperazin-1-yl)methyl)-N-(6-(pyrazin-2-yl)isoquinolin-3-yl)cyclohexane-1-carboxamide] |  |
| > 10 µM | 1070 nM | 11 nM |  |  | O=C(Nc1cc2cc(-c3cnccn3)ccc2cn1)C1CCN(CCF)CC1 [Compound 77, 1-(2-Fluoroethyl)-N-(6-(pyrazin-2-yl)isoquinolin-3-yl)piperidine-4-carboxamide] |  |
| > 10 µM | 804 nM | 13 nM |  |  | O=C(Nc1cc2cc(-c3cnccn3)ccc2cn1)C1CCN(C2COC2)CC1 [Compound 78, 1-(Oxetan-3-yl)-N-(6-(pyrazin-2-yl)isoquinolin-3-yl)piperidine-4-carboxamide] |  |
| 0.129 µM | 26 nM | 1 nM |  |  | CC(C)Nc1cncc(-c2ccc3cnc(NC(=O)C4CCN(C)CC4)cc3c2)n1 [Compound 88, N-(6-(6-(Isopropylamino)pyrazin-2-yl)isoquinolin-3-yl)-1-methylpiperidine-4-carboxamide] |  |

| Structure (SMILES) | EC50 [1, 4] | EC50 [2, 5] | EC50 [3, 6] | EC50 [2] | EC50 [3] | EC50 ([1]; SH-SY5Y, read-out: pSer396 Tau EC50 (μM)) |
| --- | --- | --- | --- | --- | --- | --- |
| O=C(Nc1cc2cc(-c3cccnc3)ccc2cn1)C12CCN(CC1)CC2 [Compound 9, N-(6-(Pyridin-3-yl)isoquinolin-3-yl)quinuclidine-4-carboxamide] |  |  | 26 nM |  |  | > 10 µM |
